Assay results taken from patent publication US7985410B2, “Method or agent for inhibiting the function of efflux pump Pseudomonas aeruginosa” (Tokai University, priority 2006, dated 2011).
Values after ≈ are worked out from the molar mass of the structure shown. Like-named read-outs stand apart in the source and are kept apart here.

Tests used:
Type in all cases: cell-based
[1] = test system: Pseudomonas aeruginosa lacking OprM, plasmid with OprM (G107C); assay: Drug sensitivity (MIC), OprM (G107C)
Protocol: (§1) Mutant protein was prepared in which 20 amino acid residues were replaced by cysteine residues, respectively, in E1 and E2 domains of the amino acid sequence of mature OprM protein as above. First, OprM gene was introduced into pUCP20 as a vector. This vector is a shuttle vector which works in Escherichia coli and Pseudomonas aeruginosa. Specific mutation was introduced to OprM gene by using regular mutation introducing kit, and resultant vector was transformed into E. coli. The resultant E. coli was cultured to prepare plasmid, and the sequence of the plasmid was determined to confirm that the mutation was successfully introduced.
(§2) Next, the plasmid was introduced into the Pseudomonas aeruginosa lacking OprM, and the drug sensitivity of the resultant bacteria was determined to evaluate the pump function thereof. Drug sensitivity might be enhanced if the function of the pump was inhibited. Drug sensitivity was indicated by minimum inhibitory concentration (MIC). Aztreonam (AZT) (β-1 lactam antibiotic) and nalidixic acid (NA) (qunolone antibiotic) were used as drugs.

[2] = test system: Pseudomonas aeruginosa lacking OprM, plasmid with OprM (S104C); assay: Drug sensitivity (MIC), OprM (S104C)
Protocol: as §1, §2

[3] = test system: Pseudomonas aeruginosa lacking OprM, plasmid with OprM (A319C); assay: Drug sensitivity (MIC), OprM (A319C)
Protocol: as §1, §2

[4] = test system: Pseudomonas aeruginosa lacking OprM, plasmid with OprM (D102C); assay: Drug sensitivity (MIC), OprM (D102C)
Protocol: as §1, §2

[5] = test system: Pseudomonas aeruginosa lacking OprM, plasmid with OprM (G315C); assay: Drug sensitivity (MIC), OprM (G315C)
Protocol: as §1, §2

[6] = test system: Pseudomonas aeruginosa lacking OprM, plasmid with OprM (F317C); assay: Drug sensitivity (MIC), OprM (F317C)
Protocol: as §1, §2

[7] = test system: Pseudomonas aeruginosa lacking OprM, plasmid with OprM (L313C); assay: Drug sensitivity (MIC), OprM (L313C)
Protocol: as §1, §2

[8] = test system: Pseudomonas aeruginosa lacking OprM, plasmid with OprM (L103C); assay: Drug sensitivity (MIC), OprM (L103C)
Protocol: as §1, §2

[9] = test system: Pseudomonas aeruginosa lacking OprM, plasmid with OprM (L316C); assay: Drug sensitivity (MIC), OprM (L316C)
Protocol: as §1, §2

[10] = test system: Pseudomonas aeruginosa lacking OprM, plasmid with OprM (Q312C); assay: Drug sensitivity (MIC), OprM (Q312C)
Protocol: as §1, §2

[11] = test system: Pseudomonas aeruginosa lacking OprM, plasmid with OprM (R311C); assay: Drug sensitivity (MIC), OprM (R311C); conditions: for resistance of the bacteria to the drug (in words): OprM (311C) mutant vs wild type; for MIC: Pseudomonas aeruginosa, OprM (R311C)
Protocol: as §1, §2

[12] = test system: Pseudomonas aeruginosa lacking OprM, plasmid with OprM (S108C); assay: Drug sensitivity (MIC), OprM (S108C)
Protocol: as §1, §2

[13] = test system: Pseudomonas aeruginosa lacking OprM, plasmid with OprM (P109C); assay: Drug sensitivity (MIC), OprM (P109C); conditions: for MIC: Pseudomonas aeruginosa, OprM (P109C)
Protocol: as §1, §2

[14] = test system: Pseudomonas aeruginosa lacking OprM, plasmid with OprM (T105C); assay: Drug sensitivity (MIC), OprM (T105C)
Protocol: as §1, §2

[15] = test system: Pseudomonas aeruginosa lacking OprM, plasmid with OprM (D318C); assay: Drug sensitivity (MIC), OprM (D318C); conditions: for resistance of the bacteria to the drug (in words): OprM (D318C) mutant vs wild type; for MIC: Pseudomonas aeruginosa, OprM (D318C)
Protocol: as §1, §2

[16] = test system: Pseudomonas aeruginosa lacking OprM, plasmid with OprM (S314C); assay: Drug sensitivity (MIC), OprM (S314C)
Protocol: as §1, §2

[17] = test system: Pseudomonas aeruginosa lacking OprM, plasmid with OprM (wild type); assay: Drug sensitivity (MIC), OprM (wild type)
Protocol: as §1, §2

[18] = test system: Pseudomonas aeruginosa lacking OprM, plasmid with OprM (G320C); assay: Drug sensitivity (MIC), OprM (G320C)
Protocol: as §1, §2

[19] = test system: Pseudomonas aeruginosa lacking OprM, plasmid with OprM (T106C); assay: Drug sensitivity (MIC), OprM (T106C)
Protocol: as §1, §2

[20] = test system: Pseudomonas aeruginosa lacking OprM, plasmid with OprM (P100C); assay: Drug sensitivity (MIC), OprM (P100C)
Protocol: as §1, §2

[21] = test system: Pseudomonas aeruginosa lacking OprM, plasmid with OprM (G101C); assay: Drug sensitivity (MIC), OprM (G101C)
Protocol: as §1, §2

With `C[C@H]1[C@H](NC(=O)/C(=N\OC(C)(C)C(=O)O)c2csc(N)n2)C(=O)N1S(=O)(=O)O` [AZT, aztreonam] the MIC ([1]; read-out: MIC for AZT) was 3.13 µg/mL (≈ 7.19 µM), the MIC ([2]; read-out: MIC for AZT) was 3.13 µg/mL (≈ 7.19 µM) and the MIC ([3]; read-out: MIC for AZT) was 1.54 µg/mL (≈ 3.54 µM). The MIC ([4]; read-out: MIC for AZT) was 3.13 µg/mL (≈ 7.19 µM), the MIC ([5]; read-out: MIC for AZT) was 0.78 µg/mL (≈ 1.79 µM) and the MIC ([6]; read-out: MIC for AZT) was 1.54 µg/mL (≈ 3.54 µM). It also gave an MIC ([7]; read-out: MIC for AZT) of 3.13 µg/mL (≈ 7.19 µM), an MIC ([8]; read-out: MIC for AZT) of 3.13 µg/mL (≈ 7.19 µM) and an MIC ([9]; read-out: MIC for AZT) of 3.13 µg/mL (≈ 7.19 µM). For the same compound, the MIC ([10]; read-out: MIC for AZT) was 0.78 µg/mL (≈ 1.79 µM), the “resistance of the bacteria to the drug (in words)” value (shortened to “resistance of the bacteria”) [11] was “markedly reduced resistance” and the MIC ([11]; read-out: MIC for AZT) was 0.39 µg/mL (≈ 0.896 µM). For the same compound, the MIC ([12]; read-out: MIC for AZT) was 3.13 µg/mL (≈ 7.19 µM), the MIC ([13]; read-out: MIC for AZT) was 3.13 µg/mL (≈ 7.19 µM) and the MIC ([14]; read-out: MIC for AZT) was 3.13 µg/mL (≈ 7.19 µM). The “resistance of the bacteria” value [15] was “markedly reduced resistance”, the MIC ([15]; read-out: MIC for AZT) was 0.39 µg/mL (≈ 0.896 µM) and the MIC ([16]; read-out: MIC for AZT) was 3.13 µg/mL (≈ 7.19 µM). For the same compound, the MIC ([17]; read-out: MIC for AZT) was 3.13 µg/mL (≈ 7.19 µM), the MIC ([18]; read-out: MIC for AZT) was 1.54 µg/mL (≈ 3.54 µM) and the MIC ([19]; read-out: MIC for AZT) was 3.13 µg/mL (≈ 7.19 µM). For the same compound, the MIC ([20]; read-out: MIC for AZT) was 3.13 µg/mL (≈ 7.19 µM) and the MIC ([21]; read-out: MIC for AZT) was 3.13 µg/mL (≈ 7.19 µM).
Work on `CCn1cc(C(=O)O)c(=O)c2ccc(C)nc21` [NA, nalidixic acid] yielded an MIC ([1]; read-out: MIC for NA) of 50 µg/mL (≈ 215 µM), an MIC ([2]; read-out: MIC for NA) of 50 µg/mL (≈ 215 µM) and an MIC ([3]; read-out: MIC for NA) of 50 µg/mL (≈ 215 µM). The MIC ([4]; read-out: MIC for NA) was 50 µg/mL (≈ 215 µM), the MIC ([5]; read-out: MIC for NA) was 25 µg/mL (≈ 108 µM) and the MIC ([6]; read-out: MIC for NA) was 50 µg/mL (≈ 215 µM). It also gave an MIC ([7]; read-out: MIC for NA) of 50 µg/mL (≈ 215 µM), an MIC ([8]; read-out: MIC for NA) of 50 µg/mL (≈ 215 µM) and an MIC ([9]; read-out: MIC for NA) of 50 µg/mL (≈ 215 µM). For the same compound, the MIC ([10]; read-out: MIC for NA) was 25 µg/mL (≈ 108 µM), the “resistance of the bacteria” value [11] was “markedly reduced resistance” and the MIC ([11]; read-out: MIC for NA) was 6.25 µg/mL (≈ 26.9 µM). For the same compound, the MIC ([12]; read-out: MIC for NA) was 50 µg/mL (≈ 215 µM), the “drug sensitivity of the bacteria (in words)” value ([13]; OprM (P109C) mutant vs wild type) was “enhanced drug sensitivity” and the MIC ([13]; read-out: MIC for NA) was 3.13 µg/mL (≈ 13.5 µM). The MIC ([14]; read-out: MIC for NA) was 50 µg/mL (≈ 215 µM), the “resistance of the bacteria” value [15] was “did not reduce resistance” and the MIC ([15]; read-out: MIC for NA) was 25 µg/mL (≈ 108 µM). The MIC ([16]; read-out: MIC for NA) was 50 µg/mL (≈ 215 µM), the MIC ([17]; read-out: MIC for NA) was 50 µg/mL (≈ 215 µM) and the MIC ([18]; read-out: MIC for NA) was 50 µg/mL (≈ 215 µM). It also gave an MIC ([19]; read-out: MIC for NA) of 50 µg/mL (≈ 215 µM), an MIC ([20]; read-out: MIC for NA) of 50 µg/mL (≈ 215 µM) and an MIC ([21]; read-out: MIC for NA) of 50 µg/mL (≈ 215 µM).
